Measurements published in PubChem BioAssay AID248 (DTP/NCI, 2004).
Values joined by “and” are separate entries in the source; they are usually repeats but may differ in a detail not shown here. Equal entries are not always repeated. Inconclusive results and toxic doses are left out. Rule as the data show it: active = T/C of 150% or more; inactive = T/C below 125%.

Tested on: L1210 leukemia ip in BDF1 mice, survival T/C
Assay: NCI In Vivo Anticancer Drug Screen. Data for tumor model L1210 Leukemia (intraperitoneal) in B6D2F1 (BDF1) mice
Settings: endpoint: mean survival time, higher = longer survival
Procedure, shortened: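 Ratio derived from survival: compound-dosed mice over vehicle-dosed mice, all bearing a transplantable tumor.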

[1] = dose: 100.0 mg/kg/injection, schedule: Q04DX002 (ip), vehicle: Klucel (hydroxypropylcellulose) (HPC)
[2] = dose: 200.0 mg/kg/injection, schedule: Q04DX002 (ip), vehicle: Klucel (hydroxypropylcellulose) (HPC)
[3] = dose: 100.0 mg/kg/injection, schedule: Q01DX001 (ip), vehicle: carboxymethylcellulose (CMC)
[4] = dose: 200.0 mg/kg/injection, schedule: Q01DX001 (ip), vehicle: carboxymethylcellulose (CMC)
[5] = dose: 400.0 mg/kg/injection, schedule: Q01DX001 (ip), vehicle: carboxymethylcellulose (CMC)
[6] = dose: 12.5 mg/kg/injection, schedule: Q01DX009 (ip), vehicle: Klucel (hydroxypropylcellulose) (HPC)
[7] = dose: 25.0 mg/kg/injection, schedule: Q01DX009 (ip), vehicle: Klucel (hydroxypropylcellulose) (HPC)
[8] = dose: 50.0 mg/kg/injection, schedule: Q01DX009 (ip), vehicle: Klucel (hydroxypropylcellulose) (HPC)
[9] = dose: 200.0 mg/kg/injection, schedule: Q01DX009 (ip), vehicle: Klucel (hydroxypropylcellulose) (HPC)
[10] = dose: 100.0 mg/kg/injection, schedule: Q01DX009 (ip), vehicle: Klucel (hydroxypropylcellulose) (HPC)
[11] = dose: 100.0 mg/kg/injection, schedule: Q04DX003 (ip), vehicle: Klucel (hydroxypropylcellulose) (HPC)
[12] = dose: 200.0 mg/kg/injection, schedule: Q04DX003 (ip), vehicle: Klucel (hydroxypropylcellulose) (HPC)
[13] = dose: 400.0 mg/kg/injection, schedule: Q01DX009 (ip), vehicle: Klucel (hydroxypropylcellulose) (HPC)
[14] = dose: 400.0 mg/kg/injection, schedule: Q04DX003 (ip), vehicle: Klucel (hydroxypropylcellulose) (HPC)

Measured: T/C

COC(=O)c1ccc(OC)c(-c2cc(OC)ccc2C(=O)OC)c1
inactive: [1] 112 % of control | [2] 101 % of control | dose: 400.0 mg/kg/injection, schedule: Q04DX002 (ip), vehicle: Klucel (hydroxypropylcellulose) (HPC) 104 % of control

O=C(O)c1ccc(Br)cc1O
inactive: [3] 98 % of control | [4] 104 % of control | [5] 95 % of control

O=[N+]([O-])/C=C/C(Cl)(Cl)Cl
inactive: dose: 6.25 mg/kg/injection, schedule: Q01DX009 (ip), vehicle: Klucel (hydroxypropylcellulose) (HPC) 101 % of control | [6] 108 % of control | [7] 97 % of control | [8] 95 % of control

CCN(CC)CC(=O)NCC(CCN1CCCCC1)(CC(C)C)c1cccc2ccccc12 (stereo unspecified)
inactive: dose: 25.0 mg/kg/injection, schedule: Q01DX009 (ip), vehicle: saline 102 % of control | dose: 50.0 mg/kg/injection, schedule: Q01DX009 (ip), vehicle: saline 105 % of control | dose: 100.0 mg/kg/injection, schedule: Q01DX009 (ip), vehicle: saline 114 % of control

Nc1ncnc2c1ncn2C1OC(CO)C(NC(=S)SCc2ccccc2)C1O (stereo unspecified)
inactive: dose: 75.0 mg/kg/injection, schedule: Q01DX001 (ip), vehicle: saline 101 % of control | dose: 150.0 mg/kg/injection, schedule: Q01DX001 (ip), vehicle: saline 87 % of control | dose: 300.0 mg/kg/injection, schedule: Q01DX001 (ip), vehicle: saline 101 % of control

Cc1ccccc1NC(=O)NO
inactive: [3] 103 % of control | [4] 100 % of control | [5] 105 % of control

COc1cc(C)cc(C(=O)O)c1O
inactive: [4] 90 % of control

COc1ccc(OC)c(/C=C/c2ccc(NC(=O)Nc3ccccc3Cl)cc2)c1
inactive: [6] 93 % of control | [7] 89 % of control | [8] 91 % of control | [1] 88 % of control | [9] 93 % of control and 86 % of control | [2] 88 % of control | dose: 300.0 mg/kg/injection, schedule: Q01DX009 (ip), vehicle: Klucel (hydroxypropylcellulose) (HPC) 106 % of control and 89 % of control

CSC(N(C)c1ccccc1)=[N+](C)c1ccccc1
inactive: dose: 100.0 mg/kg/injection, schedule: Q01DX001 (ip), vehicle: saline 105 % of control

O=C1c2cccc(Sc3ccccc3)c2C(=O)c2c(Sc3ccccc3)cccc21
inactive: dose: 100.0 mg/kg/injection, schedule: Q04DX003 (ip), vehicle: saline with Tween-80 91 % of control | dose: 200.0 mg/kg/injection, schedule: Q04DX003 (ip), vehicle: saline with Tween-80 88 % of control | dose: 400.0 mg/kg/injection, schedule: Q04DX003 (ip), vehicle: saline with Tween-80 91 % of control

Nc1ncnc2nc(C3OC(CO)C(O)C3O)[nH]c12 (stereo unspecified)
inactive: dose: 100.0 mg/kg/injection, schedule: Q01DX005 (ip), vehicle: saline 96 % of control | dose: 200.0 mg/kg/injection, schedule: Q01DX005 (ip), vehicle: saline 96 % of control

O=S(=O)(Nc1ccc(NS(=O)(=O)c2ccccc2)nc1)c1ccccc1
inactive: [10] 96 % of control | [11] 101 % of control | [9] 98 % of control | [12] 97 % of control | [13] 101 % of control | [14] 101 % of control

Oc1ccc(Br)cc1-c1nc2cc(Cl)c(Cl)cc2nc1-c1cc(Br)ccc1O
inactive: [10] 94 % of control | [11] 107 % of control | [9] 94 % of control | [12] 101 % of control | [13] 96 % of control | [14] 95 % of control

Oc1ccc2ccccc2c1C=Nc1ccccc1
inactive: dose: 100.0 mg/kg/injection, schedule: Q01DX001 (ip), vehicle: other 91 % of control | dose: 200.0 mg/kg/injection, schedule: Q01DX001 (ip), vehicle: other 98 % of control | dose: 400.0 mg/kg/injection, schedule: Q01DX001 (ip), vehicle: other 96 % of control

N#CC(c1ccc(Br)cc1)C1c2ccccc2-c2ccccc21 (stereo unspecified)
inactive: dose: 50.0 mg/kg/injection, schedule: Q01DX001 (ip), vehicle: Klucel (hydroxypropylcellulose) (HPC) 93 % of control | dose: 100.0 mg/kg/injection, schedule: Q01DX001 (ip), vehicle: Klucel (hydroxypropylcellulose) (HPC) 91 % of control | dose: 200.0 mg/kg/injection, schedule: Q01DX001 (ip), vehicle: Klucel (hydroxypropylcellulose) (HPC) 86 % of control
